In US9957264B2 (Merck Sharp & Dohme Corp., priority 2013, dated 2018):

How the values were obtained:
[1] = target: JAK2 (recombinant purified GST-tagged catalytic domain) (Homo sapiens (Human), UniProt O60674); assay: Jak Biochemical HTRF Assay (JAK2); conditions: [ATP] 8.5 μM
[2] = target: JAK1 (recombinant purified GST-tagged catalytic domain) (Homo sapiens (Human), UniProt P23458); assay: Jak Biochemical HTRF Assay (JAK1); conditions: [ATP] 31.8 μM
Method in brief: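 Under a 120 min room-temperature, ATP-initiated reaction, peptide phosphorylation was detected by Eu-pY20/streptavidin-Dylight 650 HTRF after EDTA stop. IC50 values derive from percent inhibition curves.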

JAK1 (recombinant purified GST-tagged catalytic domain), sequence (P23458 875-1153): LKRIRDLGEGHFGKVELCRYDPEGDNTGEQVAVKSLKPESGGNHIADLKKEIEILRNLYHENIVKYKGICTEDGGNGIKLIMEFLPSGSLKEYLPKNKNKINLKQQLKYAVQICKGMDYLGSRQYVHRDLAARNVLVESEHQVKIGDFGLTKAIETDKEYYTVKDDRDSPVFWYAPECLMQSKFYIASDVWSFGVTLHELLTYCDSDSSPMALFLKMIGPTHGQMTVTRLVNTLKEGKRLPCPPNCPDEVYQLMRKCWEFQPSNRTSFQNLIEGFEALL
JAK2 (recombinant purified GST-tagged catalytic domain), sequence (O60674 849-1124): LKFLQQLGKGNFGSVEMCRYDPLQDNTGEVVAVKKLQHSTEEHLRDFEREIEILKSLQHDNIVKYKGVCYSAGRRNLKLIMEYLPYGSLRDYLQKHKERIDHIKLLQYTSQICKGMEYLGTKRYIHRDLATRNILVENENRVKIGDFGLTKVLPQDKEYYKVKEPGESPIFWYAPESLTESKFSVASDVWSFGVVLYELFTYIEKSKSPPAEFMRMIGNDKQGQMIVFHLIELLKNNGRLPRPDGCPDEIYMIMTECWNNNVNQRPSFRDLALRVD

With `CN(C)S(=O)(=O)c1ccc(Nc2nn(C3(CC#N)CCN(C(=O)CCC(F)(F)F)CC3)c3cc[nH]c(=O)c23)cc1` [Example 9-21, 4-({1-[4-(cyanomethyl)-1-(4,4,4-trifluorobutanoyl)piperidin-4-yl]-4-oxo-4,5-dihydro-1H-pyrazolo[4,3-c]pyridin-3-yl}amino)-N,N-dimethylbenzenesulfonamide] the IC50 [1] was 0.33 nM and the IC50 [2] was 0.08 nM.
`CN(C)S(=O)(=O)c1ccc(Nc2nn(C3(CC#N)CCN(C(=O)CCC#N)CC3)c3cc[nH]c(=O)c23)cc1` [Example 9-22, 4-({1-[4-(cyanomethyl)-1-(3-cyanopropanoyl)piperidin-4-yl]-4-oxo-4,5-dihydro-1H-pyrazolo[4,3-c]pyridin-3-yl}amino)-N,N-dimethylbenzenesulfonamide] was tested, and the IC50 [1] was 0.21 nM and the IC50 [2] was 0.09 nM.
For `CN(C)S(=O)(=O)c1ccc(Nc2nn(C3(CC#N)CCN(C(=O)CC(C)(C)C)CC3)c3cc[nH]c(=O)c23)cc1` [Example 9-23, 4-({1-[4-(cyanomethyl)-1-(3,3-dimethylbutanoyl)piperidin-4-yl]-4-oxo-4,5-dihydro-1H-pyrazolo[4,3-c]pyridin-3-yl}amino)-N,N-dimethylbenzenesulfonamide], the IC50 [1] was 1.32 nM and the IC50 [2] was 0.14 nM.
For `CSC(C)C(=O)N1CCC(CC#N)(n2nc(Nc3ccc(S(=O)(=O)N(C)C)cc3)c3c(=O)[nH]ccc32)CC1` (stereo not drawn) [Example 9-24, 4-((1-(4-(cyanomethyl)-1-(2-(methylthio)propanoyl)piperidin-4-yl)-4-oxo-4,5-dihydro-1H-pyrazolo[4,3-c]pyridin-3-yl)amino)-N,N-dimethylbenzenesulfonamide], the IC50 [1] was 0.36 nM and the IC50 [2] was 0.14 nM.
Compound `CN(C)S(=O)(=O)c1ccc(Nc2nn(C3(CC#N)CCN(C(=O)CC#N)CC3)c3cc[nH]c(=O)c23)cc1` [Example 9-25, 4-((1-(1-(2-cyanoacetyl)-4-(cyanomethyl)piperidin-4-yl)-4-oxo-4,5-dihydro-1H-pyrazolo[4,3-c]pyridin-3-yl)amino)-N,N-dimethylbenzenesulfonamide] has an IC50 [1] of 0.16 nM and an IC50 [2] of 0.1 nM.
With `CN(C)S(=O)(=O)c1ccc(Nc2nn(C3(CC#N)CCN(C(=O)Oc4ccccc4)CC3)c3cc[nH]c(=O)c23)cc1` [Example 10-2, phenyl 4-(cyanomethyl)-4-(3-((4-(N,N-dimethylsulfamoyl)phenyl)amino)-4-oxo-4,5-dihydro-1H-pyrazolo[4,3-c]pyridin-1-yl)piperidine-1-carboxylate] the IC50 [1] was 0.86 nM and the IC50 [2] was 0.19 nM.
In the case of `CN(C)S(=O)(=O)c1ccc(Nc2nn(C3(CC#N)CCN(C(=O)Oc4ccc(F)cc4)CC3)c3cc[nH]c(=O)c23)cc1` [Example 10-3, 4-fluorophenyl 4-(cyanomethyl)-4-(3-((4-(N,N-dimethylsulfamoyl)phenyl)amino)-4-oxo-4,5-dihydro-1H-pyrazolo[4,3-c]pyridin-1-yl)piperidine-1-carboxylate], the IC50 [1] is reported as 0.97 nM and the IC50 [2] is reported as 0.27 nM.
`CN(C)S(=O)(=O)c1ccc(Nc2nn(C3(CC#N)CCN(C(=O)OCC(C)(C)C)CC3)c3cc[nH]c(=O)c23)cc1` [Example 10-4, neopentyl 4-(cyanomethyl)-4-(3-((4-(N,N-dimethylsulfamoyl)phenyl)amino)-4-oxo-4,5-dihydro-1H-pyrazolo[4,3-c]pyridin-1-yl)piperidine-1-carboxylate] gave an IC50 [1] of 3.08 nM and an IC50 [2] of 0.45 nM.
With `CCOC(=O)N1CCC(CC#N)(n2nc(Nc3ccc(S(=O)(=O)N(C)C)cc3)c3c(=O)[nH]ccc32)CC1` [Example 10-5, ethyl 4-(cyanomethyl)-4-(3-((4-(N,N-dimethylsulfamoyl)phenyl)amino)-4-oxo-4,5-dihydro-1H-pyrazolo[4,3-c]pyridin-1-yl)piperidine-1-carboxylate] the IC50 [1] was 0.29 nM and the IC50 [2] was 0.12 nM.
`CC(C)OC(=O)N1CCC(CC#N)(n2nc(Nc3ccc(S(=O)(=O)N(C)C)cc3)c3c(=O)[nH]ccc32)CC1` [Example 10-6, isopropyl 4-(cyanomethyl)-4-(3-((4-(N,N-dimethylsulfamoyl)phenyl)amino)-4-oxo-4,5-dihydro-1H-pyrazolo[4,3-c]pyridin-1-yl)piperidine-1-carboxylate] showed an IC50 [1] of 0.27 nM and an IC50 [2] of 0.12 nM.
In the case of `CSCCOC(=O)N1CCC(CC#N)(n2nc(Nc3ccc(S(=O)(=O)N(C)C)cc3)c3c(=O)[nH]ccc32)CC1` [Example 11-3, 2-(methylthio)ethyl 4-(cyanomethyl)-4-(3-((4-(N,N-dimethylsulfamoyl)phenyl)amino)-4-oxo-4,5-dihydro-1H-pyrazolo[4,3-c]pyridin-1-yl)piperidine-1-carboxylate], the IC50 [1] is reported as 1.09 nM and the IC50 [2] is reported as 0.31 nM.
`CN(C)S(=O)(=O)c1ccc(Nc2nn(C3(CC#N)CCN(C(=O)OC4CCSCC4)CC3)c3cc[nH]c(=O)c23)cc1` [Example 11-4, tetrahydro-2H-thiopyran-4-yl 4-(cyanomethyl)-4-(3-((4-(N,N-dimethylsulfamoyl)phenyl)amino)-4-oxo-4,5-dihydro-1H-pyrazolo[4,3-c]pyridin-1-yl)piperidine-1-carboxylate] showed an IC50 [1] of 1.45 nM and an IC50 [2] of 0.27 nM.
`COCC(C)OC(=O)N1CCC(CC#N)(n2nc(Nc3ccc(S(=O)(=O)N(C)C)cc3)c3c(=O)[nH]ccc32)CC1` (stereo not drawn) [Example 11-5, 1-methoxypropan-2-yl 4-(cyanomethyl)-4-(3-((4-(N,N-dimethylsulfamoyl)phenyl)amino)-4-oxo-4,5-dihydro-1H-pyrazolo[4,3-c]pyridin-1-yl)piperidine-1-carboxylate] gave an IC50 [1] of 0.61 nM and an IC50 [2] of 0.27 nM.
For `CN(C)S(=O)(=O)c1ccc(Nc2nn(C3(CC#N)CCN(C(=O)O[C@@H]4CCOC4)CC3)c3cc[nH]c(=O)c23)cc1` [Example 11-6, (R)-tetrahydrofuran-3-yl 4-(cyanomethyl)-4-(3-((4-(N,N-dimethylsulfamoyl)phenyl)amino)-4-oxo-4,5-dihydro-1H-pyrazolo[4,3-c]pyridin-1-yl)piperidine-1-carboxylate], the IC50 [1] was 0.47 nM and the IC50 [2] was 0.12 nM.
`CC(OC(=O)N1CCC(CC#N)(n2nc(Nc3ccc(S(=O)(=O)N(C)C)cc3)c3c(=O)[nH]ccc32)CC1)c1ccccn1` (stereo not drawn) [Example 11-9, 1-(pyridin-2-yl)ethyl 4-(cyanomethyl)-4-(3-((4-(N,N-dimethylsulfamoyl)phenyl)amino)-4-oxo-4,5-dihydro-1H-pyrazolo[4,3-c]pyridin-1-yl)piperidine-1-carboxylate] showed an IC50 [1] of 1.37 nM and an IC50 [2] of 0.41 nM.
`CC(C#N)OC(=O)N1CCC(CC#N)(n2nc(Nc3ccc(S(=O)(=O)N(C)C)cc3)c3c(=O)[nH]ccc32)CC1` (stereo not drawn) [Example 11-10, 1-cyanoethyl 4-(cyanomethyl)-4-(3-((4-(N,N-dimethylsulfamoyl)phenyl)amino)-4-oxo-4,5-dihydro-1H-pyrazolo[4,3-c]pyridin-1-yl)piperidine-1-carboxylate] showed an IC50 [1] of 0.1 nM and an IC50 [2] of 0.06 nM.
For `CN(C)S(=O)(=O)c1ccc(Nc2nn(C3(CC#N)CCN(C(=O)O[C@H]4CCOC4)CC3)c3cc[nH]c(=O)c23)cc1` [Example 11-11, (S)-tetrahydrofuran-3-yl 4-(cyanomethyl)-4-(3-((4-(N,N-dimethylsulfamoyl)phenyl)amino)-4-oxo-4,5-dihydro-1H-pyrazolo[4,3-c]pyridin-1-yl)piperidine-1-carboxylate], the IC50 [1] was 0.91 nM and the IC50 [2] was 0.16 nM.
For `CN(C)S(=O)(=O)c1ccc(Nc2nn(C3(CC#N)CCN(C(=O)OCC(F)(F)F)CC3)c3cc[nH]c(=O)c23)cc1` [Example 12, 2,2,2-trifluoroethyl 4-(cyanomethyl)-4-(3-((4-(N,N-dimethylsulfamoyl)phenyl)amino)-4-oxo-4,5-dihydro-1H-pyrazolo[4,3-c]pyridin-1-yl)piperidine-1-carboxylate], the IC50 [1] was 0.24 nM and the IC50 [2] was 0.11 nM.
`CC(C)OC(=O)N1CCC(CC#N)(n2nc(Nc3ccnc(F)c3)c3c(=O)[nH]ccc32)CC1` [Example 13-1, isopropyl-4-(cyanomethyl)-4-(3-(2-fluoropyridin-4-ylamino)-4-oxo-4,5-dihydropyrazolo[4,3-c]pyridin-1-yl)piperidine-1-carboxylate] was tested, and the IC50 [1] was 3.82 nM and the IC50 [2] was 0.22 nM.
Compound `COC(=O)N1CCC(CC#N)(n2nc(Nc3ccnc(F)c3)c3c(=O)[nH]ccc32)CC1` [Example 13-2, methyl 4-(cyanomethyl)-4-(3-(2-fluoropyridin-4-ylamino)-4-oxo-4,5-dihydropyrazolo[4,3-c]pyridin-1-yl)piperidine-1-carboxylate] has an IC50 [1] of 5.54 nM and an IC50 [2] of 0.64 nM.
`CN(C)S(=O)(=O)c1ccc(Nc2nn(C3(CC#N)CCN(S(=O)(=O)C4CC4)CC3)c3cc[nH]c(=O)c23)cc1` [Example 14-2, 4-((1-(4-(cyanomethyl)-1-(cyclopropylsulfonyl)piperidin-4-yl)-4-oxo-4,5-dihydro-1H-pyrazolo[4,3-c]pyridin-3-yl)amino)-N,N-dimethylbenzenesulfonamide] gave an IC50 [1] of 0.12 nM and an IC50 [2] of 0.06 nM.
With `CS(=O)(=O)c1ccc(Nc2nn(C3(CC#N)CCN(c4cc(C(F)(F)F)ccn4)CC3)c3cc[nH]c(=O)c23)cc1` [Example 15-1, 2-(4-(3-((4-(methylsulfonyl)phenyl)amino)-4-oxo-4,5-dihydro-1H-pyrazolo[4,3-c]pyridin-1-yl)-1-(4-(trifluoromethyl)pyridin-2-yl)piperidin-4-yl)acetonitrile] the IC50 [1] was 0.37 nM and the IC50 [2] was 0.16 nM.
`CS(=O)(=O)c1ccc(Nc2nn(C3(CC#N)CCN(c4ccc(C#N)cn4)CC3)c3cc[nH]c(=O)c23)cc1` [Example 15-2, 6-(4-(cyanomethyl)-4-(3-((4(methylsulfonyl)phenyl)amino)-4-oxo-4,5-dihydro-1H-pyrazolo[4,3-c]pyridin-1-yl)piperidin-1-yl)nicotinonitrile] gave an IC50 [1] of 0.04 nM and an IC50 [2] of 0.04 nM.
`N#CCC1(n2nc(Nc3ccc(S(=O)(=O)C(F)F)cc3)c3c(=O)[nH]ccc32)CCN(c2ccc(C#N)cn2)CC1` [Example 15-3, 6-(4-(cyanomethyl)-4-(3-((4((difluoromethyl)sulfonyl)phenyl)amino)-4-oxo-4,5-dihydro-1H-pyrazolo[4,3-c]pyridin-1-yl)piperidin-1-yl)nicotinonitrile] gave an IC50 [1] of 0.26 nM and an IC50 [2] of 0.25 nM.
